Like-named read-outs stand apart in the source and are kept apart here.
Columns and labels:
[1] = system: Ramos RA1 B cells; assay: Ramos FLIPR Assay (intracellular calcium flux, anti-human IgM stimulated); type: cell-based; details: for Potency Difference Ramos: ratio of IC50 value for the Comparative Example to that for the corresponding Example: Comparative Example (stereoisomer) IC50 / Example IC50; for IC50: Ramos
Procedure: Ramos FLIPR Assay […] Dye-loaded cells were pelleted (Beckmann GS-CKR, 1200 rpm, room temperature, 5 min) and resuspended at room temperature in RPMI minus phenol red with 50 mM HEPES and 10% FBS to a density of 1×10^6 cells/mL. 150 μL aliquots (150,000 cells/well) were plated into 96 well poly-D-lysine coated assay plates (BD 35 4640) and briefly centrifuged (Beckmann GS-CKR 800 rpm, 5 min, without brake). Next, 50 μL compound dilutions in 0.4% DMSO/RPMI minus phenol red+50 mM HEPES+10% FBS were added to the wells and the plate was incubated at room temperature in the dark for 1 hour. The assay plate was briefly centrifuged as above prior to measuring calcium levels. Using the […] (Molecular Devices), cells were stimulated by adding goat anti-human IgM (Invitrogen AHI0601) to 2.5 μg/mL. Changes in intracellular calcium concentrations were measured for 180 seconds and percent inhibition was determined relative to peak calcium levels seen in the presence of stimulation only. The Ramos assay measures the ability of a compound to move through the cell membrane into the cell interior. A lower IC50 value indicates a greater ability to move into the cell interior.

[2] = target: human recombinant Btk (Homo sapiens (Human), UniProt Q06187); assay: Human Recombinant Btk Enzyme Assay; type: biochemical; details: for Potency Difference Btk: ratio of IC50 value for the Comparative Example to that for the corresponding Example: Comparative Example (stereoisomer) IC50 / Example IC50
human recombinant Btk, sequence (Q06187 whole entry): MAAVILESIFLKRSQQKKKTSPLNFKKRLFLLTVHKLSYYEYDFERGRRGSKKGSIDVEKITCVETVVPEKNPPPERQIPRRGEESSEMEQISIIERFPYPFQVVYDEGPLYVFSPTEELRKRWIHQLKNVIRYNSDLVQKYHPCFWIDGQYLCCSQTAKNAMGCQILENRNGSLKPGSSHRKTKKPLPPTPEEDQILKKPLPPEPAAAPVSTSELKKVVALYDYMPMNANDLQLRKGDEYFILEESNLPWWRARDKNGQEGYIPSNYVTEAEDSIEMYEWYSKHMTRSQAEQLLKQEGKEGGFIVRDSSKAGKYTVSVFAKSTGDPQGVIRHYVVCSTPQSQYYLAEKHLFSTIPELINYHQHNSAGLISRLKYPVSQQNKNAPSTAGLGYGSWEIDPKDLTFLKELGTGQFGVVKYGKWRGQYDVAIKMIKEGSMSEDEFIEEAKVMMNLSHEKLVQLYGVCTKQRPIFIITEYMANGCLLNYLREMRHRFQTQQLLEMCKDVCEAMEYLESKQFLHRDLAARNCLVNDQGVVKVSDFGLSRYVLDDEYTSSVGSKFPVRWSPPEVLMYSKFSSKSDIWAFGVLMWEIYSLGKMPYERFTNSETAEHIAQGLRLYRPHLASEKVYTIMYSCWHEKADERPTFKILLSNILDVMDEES
Procedure: Human Recombinant Btk Enzyme Assay
To V-bottom 384-well plates were added test compounds, human recombinant Btk (1 nM, Invitrogen Corporation), fluoresceinated peptide (1.5 μM), ATP (20 μM), and assay buffer (20 mM HEPES pH 7.4, 10 mM MgCl2, 0.015% Brij 35 surfactant and 4 mM DTT in 1.6% DMSO), with a final volume of 30 μL. After incubating at room temperature for 60 min, the reaction was terminated by adding 45 μL of 35 mM EDTA to each sample. The reaction mixture was analyzed on the Caliper LABCHIP® 3000 (Caliper, Hopkinton, Mass.) by electrophoretic separation of the fluorescent substrate and phosphorylated product. […] Compounds were dissolved at 10 mM in DMSO and evaluated at eleven concentrations.

[3] = Homo sapiens, Table 4, read-out: Example Ramos IC50
[4] = Table 3, calcium flux, goat anti-human IgM 2.5 μg/mL, read-out: Ramos IC50 value
[5] = Table 3, ATP 20 μM, 60 min room temperature, read-out: Btk IC50 value
[6] = Table 4, read-out: Example Btk IC50

Structure (SMILES) | Potency Difference Ramos: ratio of IC50 value for the Comparative Example to that for the corresponding Example [1] | IC50 [1, 3] [nM] | IC50 [1, 4] [nM] | Potency Difference Btk: ratio of IC50 value for the Comparative Example to that for the corresponding Example [2] | IC50 [2, 5] [nM] | IC50 [2, 6] [nM]
C=CC(=O)N1CCc2c(cccc2-c2c(F)cc(C(N)=O)c3[nH]c4c(c23)CC(F)(F)CC4)C1 (single isomer, unassigned) [Example 6, 5-(2-Acryloyl-1,2,3,4-tetrahydroisoquinolin-5-yl)-3,3,6-trifluoro-2,3,4,9-tetrahydro-1H-carbazole-8-carboxamide] | >13 | 23 | 23 | 38 | 0.12 | 0.12
C=CC(=O)N1CCc2c(cccc2-c2c(F)cc(C(N)=O)c3[nH]c4cc(C(F)(F)F)ccc4c23)C1 (single isomer, unassigned) [Example 7, 4-(2-Acryloyl-1,2,3,4-tetrahydroisoquinolin-5-yl)-3-fluoro-7-(trifluoromethyl)-9H-carbazole-1-carboxamide] | >27 | 11 | 10.7 | 78 | 0.18 | 0.18
C=CC(=O)N1CCSc2c(-c3c(F)cc(C(N)=O)c4[nH]c5ccccc5c34)cccc21 (single isomer, unassigned) [Example 14, 4-(4-acryloyl-3,4-dihydro-2H-benzo[b][1,4]thiazin-8-yl)-3-fluoro-9H-carbazole-1-carboxamide] | 19 | 7.8 | 7.8 | 60 | 0.073 | 0.073

Molecules with a lower IC50 [1, 3], results first:

Potency Difference Ramos: ratio of IC50 value for the Comparative Example to that for the corresponding Example [1] | IC50 [1, 3] [nM] | IC50 [1, 4] [nM] | Potency Difference Btk: ratio of IC50 value for the Comparative Example to that for the corresponding Example [2] | IC50 [2, 5] [nM] | IC50 [2, 6] [nM] | Structure (SMILES)
9.4 | 6.9 | 6.9 | 19 | 0.077 | 0.077 | C=CC(=O)N1CCOc2c(-c3c(F)cc(C(N)=O)c4[nH]c5ccccc5c34)cccc21 (single isomer, unassigned) [Example 8, 4-(4-Acryloyl-3,4-dihydro-2H-benzo[b][1,4]oxazin-8-yl)-3-fluoro-9H-carbazole-1-carboxamide]
48 | 6.2 | 6.2 | 26 | 0.37 | 0.37 | C=CC(=O)N1CCCOc2c(-c3c(F)cc(C(N)=O)c4[nH]c5cc(C(F)(F)F)ccc5c34)cccc21 (single isomer, unassigned) [Example 12, 4-(5-Acryloyl-2,3,4,5-tetrahydrobenzo[b][1,4]oxazepin-9-yl)-3-fluoro-7-(trifluoromethyl)-9H-carbazole-1-carboxamide]
30 | 2.4 | 2.4 | 60 | 0.067 | 0.067 | C=CC(=O)N1CCc2c(cccc2-c2c(F)cc(C(N)=O)c3[nH]c4ccccc4c23)C1 (single isomer, unassigned) [Example 5, 4-(2-Acryloyl-1,2,3,4-tetrahydroisoquinolin-5-yl)-3-fluoro-9H-carbazole-1-carboxamide]
